Laboratory results as given in patent US20070108405A1, “Compositions and methods for delivery of biologically active agents” (FH FAULDING & CO., LTD., priority 2003, published 2007).
Marks after values point to notes of the source that are not given here.

Experiment: Solubility of active agents in surfactants (saturation, HPLC)
Format: physicochemical
Settings: 40° C., mean of three ± SD unless a (single) or b (duplicate); for Solubility Irinotecan HCl: irinotecan HCl in the surfactant; for Solubility Irinotecan base: irinotecan base in the surfactant; for Solubility Paclitaxel: paclitaxel in the surfactant
Experimental: In order for the surfactants to be useful as components of the delivery system, it is important to be able to dissolve biologically active agents in the surfactant or in the water. Table 3 illustrates that the surfactants are useful for dissolving three pharmaceutical compounds that may potentially be delivered using the invention. Solubility was determined by saturation of the surfactant with solid drug at 40° C. until saturation is achieved. Drug level was determined by reverse phase HPLC. Values given are the mean of three separate samples±standard deviation, unless denoted otherwise.

| SMILES | Solubility Irinotecan HCl | Solubility Irinotecan base | Solubility Paclitaxel |
| --- | --- | --- | --- |
| CC(C)CCCC(C)CCCC(C)CCCC(C)CCN(CCO)C(N)=O (centres unmarked) [1-(3,7,11,15-tetramethyl-hexadecyl)-1-(2-hydroxyethyl)urea] | 0.43 ± 0.20 mg/g | 0.35 ± 0.001 mg/g | 0.87 ± 0.18 mg/g |
| CC(C)CCCC(C)CCCC(C)CCCC(C)CCNC(=O)NCCO (centres unmarked) [1-(3,7,11,15-tetramethyl-hexadecyl)-3-(2-hydroxyethyl)urea] | 4.36 ± 0.30 mg/g | 0.94 ± 0.02 mg/g | 5.67 ± 1.64 mg/g |
| CC(C)CCCC(C)CCCC(C)CCCC(C)CCOC(=O)C(O)CO (centres unmarked) [2,3-Dihydroxypropionic acid 3,7,11,15-tetramethyl-hexadecyl ester] | 4.33 ± 0.37 mg/g | 64.54 ± 4.65 mg/g | 4.83 ± 0.83 mg/g |
| CC(C)CCCC(C)CCCC(C)CCOC(=O)C(O)CO (centres unmarked) [2,3-Dihydroxypropionic acid 3,7,11-trimethyl-dodecyl ester] | 4.58^a mg/g | 3.92^b mg/g | 7.25^b mg/g |
| CCCCCCCCC=CCCCCCCCCOC(=O)C(O)CO (centres unmarked) [2,3-Dihydroxypropionic acid octadec-9-enyl ester] | 9.69 ± 0.74 mg/g | 35.66 ± 1.26 mg/g | 8.43 ± 0.23 mg/g |
| CC(C)CCCC(C)CCCC(C)CCCC(C)CCNC(N)=O (centres unmarked) [3,7,11,15-Tetramethyl-hexadecyl urea] | 1.63 ± 0.64 mg/g | 0.44 ± 0.11 mg/g | 7.85 ± 1.93 mg/g |
| CC(C)CCCC(C)CCCC(C)CCCC(C)CC(=O)OCC(O)CO (centres unmarked) [3,7,11,15-tetramethyl-hexadecanoic acid 1-glycerol ester] | – | 6.22^a mg/g | 6.66^a mg/g |
| CC(C)CCCC(C)CCCC(C)CCNC(N)=O (centres unmarked) [3,7,11-Trimethyl-dodecyl urea] | 33.83 ± 5.98 mg/g | 3.76 ± 0.45 mg/g | 34.65 ± 2.34 mg/g |
